Data as given in patent US5043340A, “Derivatives of 4-desacetyl VLB C-3 carboxhydrazide” (Eli Lilly and Company, priority 1990, dated 1991).
Structures can show the parent of a compound that is named as a salt. Where two headings read alike, the source gives them in different places.

Columns and labels:
[1] = tested on: experimental malignancies; details: in vivo; cited from earlier work
pKa = format: physicochemical; details: for pKa (first value) / pKa (second value) / pKa (third value): 66% DMF
[2] = tested on: human leukemic cells (CCRF-CEM cell line); experiment: CCRF-CEM Cytotoxicity Assay (72 h, Coulter particle counter); format: cell-based; details: 37° C., read-out: IC50 (concentration giving 50% growth inhibition)
Protocol: The CEM cells were grown in RPMI 1640 media (MA Bioproducts) at 37° C. in humidified atmospheric conditions of 95% air and 5% CO2. The cells were grown in static suspension and maintained in log growth phase at a concentration of 3-7×10^5 cells/ml. The cells were dispersed in wells at a concentration of 4.8×10^4 /well. The drug was dissolved in dimethyl sulfoxide and was added at different dilutions to the cluster plates (wells). The cluster plates were incubated at 37° C. for 72 hours. After 72 hours the wells were read using a ZBI Coulter particle counter. Table 3 below gives the results of such testing of several compounds represented by Formula I above. In the table, Column 1 gives the name of the compound and Column 2 gives the IC50 (concentration giving 50% growth inhibition) in μg/ml.

[3] = tested on: human lung adenocarcinoma cells (P3/UCLA cell line); experiment: P3/UCLA - GIEMSA ASSAY (5 days); format: cell-based; details: 120 h, 37° C., free compound, read-out: IC50 (concentration giving 50% growth inhibition)
[4] = tested on: P3/UCLA lung adenocarcinoma xenografts; experiment: in vivo test against xenografts of P3/UCLA lung adenocarcinoma in female nude mice; details: days 2, 5 and 8, 28-day results
Protocol: The compounds were tested in vivo against xenografts of P3/UCLA lung adenocarcinoma in female nude mice. The test was begun by implanting each mouse with 10^7 P3/UCLA tumor cells, subcutaneously. On each of days 2, 5, and 8 after implantation, each mouse was injected with a conjugate or a compound in physiological buffered saline. Control mice were injected with saline only. The doses of conjugate or of vinca intermediate (based on vinca hydrazide content) are indicated below. The size of the tumors induced by implantation was measured on days 14, 21, and 28 after implantation. Each treatment group consisted of five mice.

[5] = solvent not given, read-out: pKa (first value)
[6] = 66% dmf, read-out: pKa (second value)
[7] = 66% dmf, read-out: pKa (first value)
[8] = 66% dmf, read-out: pKa (third value)
[9] = 1.00 mg/kg (based on vinca hydrazide content)
[10] = 2.00 mg/kg (based on vinca hydrazide content)

CCC1(O)CN2CCc3c([nH]c4ccccc34)C(C(=O)OC)(c3cc4c(cc3OC)N(C)C3C(O)(C(=O)OC)CC5(CC)C=CCN6CCC43C65)CC(C2)C1O (centres unmarked) [4-desacetoxy-3'-hydroxyvinblastine]
found active in the treatment of experimental malignancies in animals [1]: active

CCC1(O)CC2CN(CCc3c([nH]c4ccccc34)C(C(=O)OC)(c3cc4c(cc3OC)N(C)C3C(O)(C(=O)OC)CC5(CC)C=CCN6CCC43C65)C2)C1 (centres unmarked) [4-desacetoxyvinblastine]
found active in the treatment of experimental malignancies in animals [1]: active

CC(=O)CCCC(=O)NCCC(=O)O [6-[(2-Carboxyethyl)amino]-2,6-dioxohexane]
pKa (pKa; [5]): 7.1

CCC1(O)CC2CN(CCc3c([nH]c4ccccc34)C(C(=O)OC)(c3cc4c(cc3OC)N(C)C3C(O)(C(=O)NN=C(C)CCCC(=O)O)C(O)C5(CC)C=CCN6CCC43C65)C2)C1 (centres unmarked) [Example 2, 4-Desacetyl VLB C-3 N^2-(4-carboxy-1-methylbutylidene)carboxhydrazide]
pKa (first value) (pKa): 5.1
pKa (second value) (pKa): 6.6
pKa (third value) (pKa): 7.7

CCC1(O)CC2CN(CCc3c([nH]c4ccccc34)C(C(=O)OC)(c3cc4c(cc3OC)N(C)C3C(O)(C(=O)NN=C(C)CCCCC(=O)O)C(O)C5(CC)C=CCN6CCC43C65)C2)C1 (centres unmarked) [Example 4, 4-Desacetyl VLB C-3 N^2-(5-carboxy-1-methylpentylidene)carboxhydrazide]
pKa (first value) (pKa): 5.3
pKa (third value) (pKa): 8.1
pKa (pKa; [6]): 7

CCC1(O)CC2CN(CCc3c([nH]c4ccccc34)C(C(=O)OC)(c3cc4c(cc3OC)N(C)C3C(O)(C(=O)NN=C(C)CCCCC(=O)O)C(O)C5(CC)C=CCN6CCC43C65)C2)C1 (centres unmarked) [Example 5, 4-Desacetyl VLB C-3 N^2-(5-carboxy-1-methylpentylidene)carboxhydrazidesulfate salt]
IC50 [2]: 0.2 µg/mL

CCC1(O)CC2CN(CCc3c([nH]c4ccccc34)C(C(=O)OC)(c3cc4c(cc3OC)N(C)C3C(O)(C(=O)NN=C(C)CCCC(=O)NCCC(=O)O)C(O)C5(CC)C=CCN6CCC43C65)C2)C1 (centres unmarked) [Example 6, 4-Desacetyl VLB C-3 N^2-(5-[(2-carboxyethyl)amino]-1-methyl-5-oxopentylidene)carboxhydrazide]
pKa (pKa; [7]): 5.1
pKa (pKa; [6]): 6.6
pKa (pKa; [8]): 7.3

CCC1(O)CC2CN(CCc3c([nH]c4ccccc34)C(C(=O)OC)(c3cc4c(cc3OC)N(C)C3C(O)(C(=O)NN=C(C)CCCC(=O)NCCC(=O)O)C(O)C5(CC)C=CCN6CCC43C65)C2)C1 (centres unmarked) [Example 7, 4-Desacetyl VLB C-3 N^2-(5-[(2-carboxyethyl)amino]-1-methyl-5-oxopentylidene)carboxhydrazide sulfate salt]
IC50 [2]: 0.095 µg/mL

CCC1(O)CC2CN(CCc3c([nH]c4ccccc34)C(C(=O)OC)(c3cc4c(cc3OC)N(C)C3C(O)(C(=O)NN=C(C)CCCCC(=O)NCCC(=O)O)C(O)C5(CC)C=CCN6CCC43C65)C2)C1 (centres unmarked) [Example 8, 4-Desacetyl VLB C-3 N^2-(6-[(2-carboxyethyl)amino]-1-methyl-6-oxohexylidene)carboxhydrazide]
pKa (pKa; [7]): 5
pKa (pKa; [6]): 6.2
pKa (pKa; [8]): 7.8

CCC1(O)CC2CN(CCc3c([nH]c4ccccc34)C(C(=O)OC)(c3cc4c(cc3OC)N(C)C3C(O)(C(=O)NN=C(C)CCCCC(=O)NCCC(=O)O)C(O)C5(CC)C=CCN6CCC43C65)C2)C1 (centres unmarked) [Example 9, 4-Desacetyl VLB C-3 N^2-(6-[(2-carboxyethyl)amino]-1-methyl-6-oxohexylidene)carboxhydrazide sulfate salt]
IC50 [2]: 0.068 µg/mL
IC50 [3]: 0.043 µg/mL
% Inhibition [4, 9]: 43%
% Inhibition [4, 10]: 35%

CCC1(O)CC2CN(CCc3c([nH]c4ccccc34)C(C(=O)OC)(c3cc4c(cc3OC)N(C)C3C(O)(C(=O)NNC(C)CCC(=O)O)C(O)C5(CC)C=CCN6CCC43C65)C2)C1 (centres unmarked) [Example 10, 4-Desacetyl VLB C-3 N^2-(3-carboxy-1-methylpropyl)carboxhydrazide]
pKa (first value) (pKa): 5.3
pKa (second value) (pKa): 6.9
pKa (third value) (pKa): 7.9

CCC1(O)CC2CN(CCc3c([nH]c4ccccc34)C(C(=O)OC)(c3cc4c(cc3OC)N(C)C3C(O)(C(=O)NNC(C)CCC(=O)O)C(O)C5(CC)C=CCN6CCC43C65)C2)C1 (centres unmarked) [Example 11, 4-Desacetyl VLB C-3 N^2-(3-carboxy-1-methylpropyl)carboxhydrazide sulfate salt]
IC50 [2]: 0.1 µg/mL

CCC1(O)CC2CN(CCc3c([nH]c4ccccc34)C(C(=O)OC)(c3cc4c(cc3OC)N(C)C3C(O)(C(=O)NNC(C)CCCCC(=O)O)C(O)C5(CC)C=CCN6CCC43C65)C2)C1 (centres unmarked) [Example 13, 4-Desacetyl VLB C-3 N^2-(5-carboxy-1-methylpentyl)carboxhydrazide sulfate salt]
IC50 [2]: 0.4 µg/mL

CCC1(O)CC2CN(CCc3c([nH]c4ccccc34)C(C(=O)OC)(c3cc4c(cc3OC)N(C)C3C(O)(C(=O)NNC(C)CCCC(=O)NCCC(=O)O)C(O)C5(CC)C=CCN6CCC43C65)C2)C1 (centres unmarked) [Example 14, 4-Desacetyl VLB C-3 N^2-(5-[(2-carboxyethyl)amino]-1-methyl-5-oxopentyl)carboxhydrazide]
pKa (pKa; [7]): 5.7
pKa (pKa; [6]): 6.7
pKa (pKa; [8]): 7.9

CCC1(O)CC2CN(CCc3c([nH]c4ccccc34)C(C(=O)OC)(c3cc4c(cc3OC)N(C)C3C(O)(C(=O)NNC(C)CCCC(=O)NCCC(=O)O)C(O)C5(CC)C=CCN6CCC43C65)C2)C1 (centres unmarked) [Example 15, 4-Desacetyl VLB C-3 N^2-(5-[(2-carboxyethyl)amino]1-methyl-5-oxopentyl)carboxhydrazide sulfate salt]
IC50 [2]: 0.046 µg/mL

CCC1(O)CC2CN(CCc3c([nH]c4ccccc34)C(C(=O)OC)(c3cc4c(cc3OC)N(C)C3C(O)(C(=O)NNC(C)CCCCC(=O)NCCC(=O)O)C(O)C5(CC)C=CCN6CCC43C65)C2)C1 (centres unmarked) [Example 17, 4-Desacetyl VLB C-3 N^2-(6-[(2-carboxyethyl)amino]-1-methyl-6-oxohexyl)carboxhydrazide sulfate salt]
IC50 [2]: 0.039 µg/mL
IC50 [3]: 0.217 µg/mL
% Inhibition [4, 9]: 20%
% Inhibition [4, 10]: 39%

CCC1(O)CC2CN(CCc3c([nH]c4ccccc34)C(C(=O)OC)(c3cc4c(cc3OC)N(C)C3C(O)(C(=O)NNC(C)CCCCC(=O)NCCC(=O)OC)C(O)C5(CC)C=CCN6CCC43C65)C2)C1 (centres unmarked) [Example 30, 4-Desacetyl VLB C-3 N^2-(6-[(3-methoxy-3-oxopropyl)amino]-1-methyl-6-oxohexyl)carboxhydrazide]
pKa (pKa; [5]): 5.4
pKa (pKa; solvent not given, read-out: pKa (second value)): 7.5

CC[C@]1(O)C[C@@H]2CN(CCc3c([nH]c4ccccc34)[C@@](C(=O)OC)(c3cc4c(cc3OC)N(C)[C@H]3[C@@](O)(C(=O)OC)[C@H](OC(C)=O)[C@]5(CC)C=CCN6CC[C@]43[C@@H]65)C2)C1 [VLB, vincaleukoblastine]
found active in the treatment of experimental malignancies in animals [1]: active

CCC1CC2CN(CCc3c([nH]c4ccccc34)C(C(=O)OC)(c3cc4c(cc3OC)N(C)C3C(O)(C(=O)OC)C(OC(C)=O)C5(CC)C=CCN6CCC43C65)C2)C1 (centres unmarked) [deoxy VLB "A"]
found active in the treatment of experimental malignancies in animals [1]: active

CCC1(O)CN2CCc3c([nH]c4ccccc34)C(C(=O)OC)(c3cc4c(cc3OC)N(C)C3C(O)(C(=O)OC)C(OC(C)=O)C5(CC)C=CCN6CCC43C65)CC(O)(C2)C1 (centres unmarked) [leurocolombine]
found active in the treatment of experimental malignancies in animals [1]: active

CC[C@]12CN3CCc4c([nH]c5ccccc45)[C@@](C(=O)OC)(c4cc5c(cc4OC)N(C=O)[C@H]4[C@@](O)(C(=O)OC)[C@H](OC(C)=O)[C@]6(CC)C=CCN7CC[C@]54[C@@H]76)C[C@@H](C3)[C@H]1O2 [leuroformine]
found active in the treatment of experimental malignancies in animals [1]: active

CC[C@]12CN3CCc4c([nH]c5ccccc45)[C@@](C(=O)OC)(c4cc5c(cc4OC)N(C)[C@H]4[C@@](O)(C(=O)OC)[C@H](OC(C)=O)[C@]6(CC)C=CCN7CC[C@]54[C@@H]76)C[C@H](C3)[C@H]1O2 [leurosine]
found active in the treatment of experimental malignancies in animals [1]: active

CCC1(O)CN2CCc3c([nH]c4ccccc34)C(C(=O)OC)(c3cc4c(cc3OC)N(C)C3C(O)(C(=O)OC)C(OC(C)=O)C5(CC)C=CCN6CCC43C65)CC(C2)C1O (centres unmarked) [vincadioline]
found active in the treatment of experimental malignancies in animals [1]: active

CC[C@]1(O)C[C@H]2CN(CCc3c([nH]c4ccccc34)[C@@](C(=O)OC)(c3cc4c(cc3OC)N(C=O)[C@H]3[C@@](O)(C(=O)OC)[C@H](OC(C)=O)[C@]5(CC)C=CCN6CC[C@]43[C@@H]65)C2)C1 [vincristine, leurocristine]
found active in the treatment of experimental malignancies in animals [1]: active

leurosidine
found active in the treatment of experimental malignancies in animals [1]: active
